Reference: US12479847B2 (DANA-FARBER CANCER INSTITUTE, INC., priority 2019, dated 2025)

Legend:
Experiment in all cases: KINOMEscan (ScanMAX) kinase profiling
Type in all cases: binding
[1] = target: T1, panel of 468 kinases (Homo sapiens, UniProt Q6ZWH5); conditions: NEK10; 1 μM; read-out: % control
T1 construct: purchased KINOMEscan (ScanMAX) service
T1 sequence (Q6ZWH5 1-1172): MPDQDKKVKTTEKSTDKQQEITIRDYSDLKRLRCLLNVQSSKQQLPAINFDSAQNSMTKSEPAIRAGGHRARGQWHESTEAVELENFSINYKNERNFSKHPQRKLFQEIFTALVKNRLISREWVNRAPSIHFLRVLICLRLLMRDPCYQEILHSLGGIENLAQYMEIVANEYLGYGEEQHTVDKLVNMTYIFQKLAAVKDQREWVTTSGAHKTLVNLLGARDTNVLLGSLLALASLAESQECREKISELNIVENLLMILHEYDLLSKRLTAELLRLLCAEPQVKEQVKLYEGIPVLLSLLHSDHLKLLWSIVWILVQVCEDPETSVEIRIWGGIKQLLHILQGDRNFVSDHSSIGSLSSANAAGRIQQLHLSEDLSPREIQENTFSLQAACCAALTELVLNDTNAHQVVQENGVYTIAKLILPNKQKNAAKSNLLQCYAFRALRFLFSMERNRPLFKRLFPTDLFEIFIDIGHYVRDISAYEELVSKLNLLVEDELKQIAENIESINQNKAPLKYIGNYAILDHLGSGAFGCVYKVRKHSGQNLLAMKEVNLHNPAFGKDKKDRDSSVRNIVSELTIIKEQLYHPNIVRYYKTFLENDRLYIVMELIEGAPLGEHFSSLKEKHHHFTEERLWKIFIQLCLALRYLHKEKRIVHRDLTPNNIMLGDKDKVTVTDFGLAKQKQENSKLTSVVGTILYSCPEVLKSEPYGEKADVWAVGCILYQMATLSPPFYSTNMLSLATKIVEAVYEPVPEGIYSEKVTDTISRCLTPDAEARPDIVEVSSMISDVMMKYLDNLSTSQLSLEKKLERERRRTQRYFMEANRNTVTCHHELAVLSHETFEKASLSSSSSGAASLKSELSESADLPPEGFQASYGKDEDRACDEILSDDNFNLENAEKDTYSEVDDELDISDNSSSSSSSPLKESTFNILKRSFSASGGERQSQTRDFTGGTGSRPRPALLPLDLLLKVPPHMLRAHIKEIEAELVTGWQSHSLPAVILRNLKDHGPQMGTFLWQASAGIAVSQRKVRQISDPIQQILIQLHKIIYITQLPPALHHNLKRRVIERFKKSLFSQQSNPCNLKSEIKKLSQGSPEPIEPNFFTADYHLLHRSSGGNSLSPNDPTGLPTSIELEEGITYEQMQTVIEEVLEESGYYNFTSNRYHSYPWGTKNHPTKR

[2] = target: T2, panel of 468 kinases (Homo sapiens, UniProt Q9H0K1); conditions: SIK2; 1 μM; read-out: % control
T2 construct: purchased KINOMEscan (ScanMAX) service

[3] = target: T3, panel of 468 kinases (Homo sapiens, UniProt O75747); conditions: PIK3C2G; 1 μM; read-out: % control
T3 construct: purchased KINOMEscan (ScanMAX) service
T3 sequence (O75747 1-1486): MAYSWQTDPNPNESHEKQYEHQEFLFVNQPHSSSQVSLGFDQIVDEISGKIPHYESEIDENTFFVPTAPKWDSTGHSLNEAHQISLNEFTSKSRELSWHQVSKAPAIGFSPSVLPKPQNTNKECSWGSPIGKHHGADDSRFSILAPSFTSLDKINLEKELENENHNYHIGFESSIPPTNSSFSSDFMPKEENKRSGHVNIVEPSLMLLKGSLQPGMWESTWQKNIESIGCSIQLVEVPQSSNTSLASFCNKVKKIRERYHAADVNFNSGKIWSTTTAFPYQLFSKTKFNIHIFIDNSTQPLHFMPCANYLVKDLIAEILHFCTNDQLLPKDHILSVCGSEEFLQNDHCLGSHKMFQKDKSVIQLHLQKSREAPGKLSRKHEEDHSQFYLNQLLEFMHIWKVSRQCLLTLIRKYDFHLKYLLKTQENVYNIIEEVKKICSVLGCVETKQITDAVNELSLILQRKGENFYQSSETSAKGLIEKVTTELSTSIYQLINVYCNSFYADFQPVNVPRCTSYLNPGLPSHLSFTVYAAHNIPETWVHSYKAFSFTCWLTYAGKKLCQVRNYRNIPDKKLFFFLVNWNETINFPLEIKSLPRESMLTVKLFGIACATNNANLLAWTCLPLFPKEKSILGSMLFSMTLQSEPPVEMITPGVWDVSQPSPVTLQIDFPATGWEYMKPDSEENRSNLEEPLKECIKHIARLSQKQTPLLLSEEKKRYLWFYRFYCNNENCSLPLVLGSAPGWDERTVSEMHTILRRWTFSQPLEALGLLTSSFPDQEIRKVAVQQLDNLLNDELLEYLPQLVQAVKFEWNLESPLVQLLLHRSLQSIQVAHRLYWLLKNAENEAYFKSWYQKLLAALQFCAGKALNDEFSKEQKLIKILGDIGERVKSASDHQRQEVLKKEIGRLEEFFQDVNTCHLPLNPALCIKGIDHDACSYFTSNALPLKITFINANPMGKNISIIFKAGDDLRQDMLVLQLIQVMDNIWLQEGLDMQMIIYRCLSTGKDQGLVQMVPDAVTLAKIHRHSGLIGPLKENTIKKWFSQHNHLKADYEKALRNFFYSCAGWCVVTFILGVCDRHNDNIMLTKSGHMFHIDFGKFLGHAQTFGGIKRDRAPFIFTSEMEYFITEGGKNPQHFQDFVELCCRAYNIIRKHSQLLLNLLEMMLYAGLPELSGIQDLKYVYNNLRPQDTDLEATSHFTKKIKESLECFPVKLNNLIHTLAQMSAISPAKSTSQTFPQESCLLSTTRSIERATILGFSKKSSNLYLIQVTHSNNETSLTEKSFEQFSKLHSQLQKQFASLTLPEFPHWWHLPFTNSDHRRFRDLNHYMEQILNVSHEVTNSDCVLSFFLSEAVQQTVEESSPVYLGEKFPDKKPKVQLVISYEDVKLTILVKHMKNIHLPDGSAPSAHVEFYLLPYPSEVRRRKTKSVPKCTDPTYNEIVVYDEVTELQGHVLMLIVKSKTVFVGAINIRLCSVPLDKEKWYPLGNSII

T2 sequence (Q9H0K1 whole entry): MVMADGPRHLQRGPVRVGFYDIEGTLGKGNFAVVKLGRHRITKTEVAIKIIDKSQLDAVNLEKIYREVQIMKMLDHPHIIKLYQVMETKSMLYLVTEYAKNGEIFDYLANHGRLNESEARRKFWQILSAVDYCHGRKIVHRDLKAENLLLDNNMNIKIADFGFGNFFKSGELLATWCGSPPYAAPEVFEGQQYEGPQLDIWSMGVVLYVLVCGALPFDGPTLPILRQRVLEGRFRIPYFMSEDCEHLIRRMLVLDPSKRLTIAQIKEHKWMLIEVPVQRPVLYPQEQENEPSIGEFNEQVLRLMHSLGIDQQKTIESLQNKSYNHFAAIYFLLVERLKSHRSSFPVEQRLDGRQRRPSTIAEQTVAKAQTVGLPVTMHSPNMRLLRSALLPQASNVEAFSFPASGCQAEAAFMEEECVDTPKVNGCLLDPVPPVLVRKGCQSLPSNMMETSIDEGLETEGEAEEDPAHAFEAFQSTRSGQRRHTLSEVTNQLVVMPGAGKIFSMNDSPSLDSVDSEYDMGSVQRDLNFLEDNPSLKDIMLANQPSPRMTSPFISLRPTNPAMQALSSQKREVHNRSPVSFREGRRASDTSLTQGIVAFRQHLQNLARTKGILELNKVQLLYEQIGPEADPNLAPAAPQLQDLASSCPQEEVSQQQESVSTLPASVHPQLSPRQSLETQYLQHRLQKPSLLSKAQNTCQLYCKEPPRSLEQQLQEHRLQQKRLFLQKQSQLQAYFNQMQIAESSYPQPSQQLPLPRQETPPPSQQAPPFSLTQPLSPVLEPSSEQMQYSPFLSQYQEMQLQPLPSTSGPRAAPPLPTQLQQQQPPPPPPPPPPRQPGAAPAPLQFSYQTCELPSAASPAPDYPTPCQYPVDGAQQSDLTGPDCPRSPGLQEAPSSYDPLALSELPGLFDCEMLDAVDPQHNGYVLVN

## CNc1nc(Nc2ccc(S(=O)(=O)N3CCC(N4CCOCC4)CC3)cc2OC)nc2[nH]cc(Cl)c12 [Compound 12, 5-chloro-N2-(2-methoxy-4-((4-morpholinopiperidin-1-yl)sulfonyl)phenyl)-N4-methyl-7H-pyrrolo[2,3-d]pyrimidine-2,4-diamine]
[1]
  remaining binding at 1 µM: 63%
[2]
  remaining binding at 1 µM: 100%
[3]
  remaining binding at 1 µM: 100%

## CNc1nc(Nc2ccc(P3(=O)CCN(C4CCOCC4)CC3)cc2OC)nc2[nH]cc(Cl)c12 [Compound 77, 4-(4-((5-chloro-4-(methylamino)-7H-pyrrolo[2,3-d]pyrimidin-2-yl)amino)-3-methoxyphenyl)-1-(tetrahydro-2H-pyran-4-yl)-1,4-azaphosphinane 4-oxide]
[1]
  remaining binding at 1 µM: 39%
[2]
  remaining binding at 1 µM: 100%
[3]
  remaining binding at 1 µM: 93%

## CNc1nc(Nc2ccc(C(=O)N3CCC(N4CCOCC4)CC3)c3c2OCO3)nc2[nH]cc(Cl)c12 [Compound 75, (7-((5-chloro-4-(methylamino)-7H-pyrrolo[2,3-d]pyrimidin-2-yl)amino)benzo[d][1,3]dioxol-4-yl)(4-morpholinopiperidin-1-yl)methanone]
[1]
  remaining binding at 1 µM: 66%
[2]
  remaining binding at 1 µM: 100%
[3]
  remaining binding at 1 µM: 100%
